Some test systems named below: SK-MEL-2 melanoma; NCI-H226 lung; OVCAR-8 ovarian; MALME-3M melanoma; HCT-15 colon; SF-295 CNS; ACHN renal; HT29 colon; HCT-116 colon; SNB-19 CNS.
Assay in all cases: NCI anticancer screen, dose series, 48 h

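48-hour exposure; five concentrations; linearly interpolated endpoints. GI50 marks 50% less growth. The concentration for full growth arrest is given as TGI.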 Where only a bound is given, the exact number is not on record here.

Take `COc1cc(S(C)(=O)=O)ccc1Nc1nc2ccc(-c3ccc(NC(=O)[C@H](C)c4ccc(F)cc4)cc3)cn2n1`: the GI50 with SK-MEL-2 melanoma was over 100 µM; with NCI-H226 lung, over 100 µM; with OVCAR-8 ovarian, 9.36 µM; with MALME-3M melanoma it was over 100 µM; in the test with HCT-15 colon, 0.075 µM; in the test with SF-295 CNS, over 100 µM. The GI50 in the test with ACHN renal is over 83.5 µM; in the test on HCT-116 colon it was 0.0828 µM; with SNB-19 CNS it was over 100 µM. Further, the TGI in the test with SK-MEL-2 melanoma, in the test on NCI-H226 lung, in the test with OVCAR-8 ovarian, in the test on MALME-3M melanoma, in the test with HCT-15 colon and in the test with SF-295 CNS was over 100 µM in each case. The TGI in the test on ACHN renal, in the test on HT29 colon, in the test on HCT-116 colon and in the test on SNB-19 CNS was over 100 µM in each case.

On to `Nc1nc(CCC(=O)Nc2cccc(C(F)(F)F)c2)cc(-c2ccc3ccccc3c2)n1`, for which the TGI in the test with SK-MEL-2 melanoma, with NCI-H226 lung, with OVCAR-8 ovarian, with MALME-3M melanoma, in the test with HCT-15 colon and in the test on SF-295 CNS was over 100 µM in each case. The TGI with ACHN renal, in the test on HT29 colon, in the test with HCT-116 colon and in the test with SNB-19 CNS was over 100 µM throughout.

As for `CCOC(=O)COS(=O)(=O)C(F)(F)F`, the TGI in the test on SK-MEL-2 melanoma is over 100 µM; in the test on NCI-H226 lung, over 100 µM; with OVCAR-8 ovarian, over 100 µM; in the test on MALME-3M melanoma, over 100 µM; in the test with HCT-15 colon, 35.1 µM; in the test with SF-295 CNS, over 100 µM. The TGI with ACHN renal, in the test with HT29 colon, in the test on HCT-116 colon and in the test with SNB-19 CNS was over 100 µM in each case.

As for `Fc1cccc(Cl)c1/C=N\N=C1c2ccccc2-c2ccccc21`, the TGI in the test with SK-MEL-2 melanoma, in the test on NCI-H226 lung, in the test with OVCAR-8 ovarian, in the test with MALME-3M melanoma, in the test on HCT-15 colon and in the test with SF-295 CNS was over 100 µM throughout. Besides, the TGI with ACHN renal, with HT29 colon, in the test on HCT-116 colon and in the test with SNB-19 CNS was over 100 µM in each case.

On to `CC1CCN(CC(=O)N2c3ccccc3Sc3cc4ccccc4cc32)CC1`, for which the TGI with SK-MEL-2 melanoma, with NCI-H226 lung, with OVCAR-8 ovarian, in the test with MALME-3M melanoma, in the test on HCT-15 colon and in the test on SF-295 CNS was over 100 µM each time. For the same compound, the TGI in the test with ACHN renal, in the test on HT29 colon, in the test with HCT-116 colon and in the test with SNB-19 CNS was over 100 µM each time.

Turning to `COc1cc(Br)c(C=Nc2cccc3ccc(OS(=O)(=O)c4cccc([N+](=O)[O-])c4)cc23)cc1OC`, the TGI in the test on SK-MEL-2 melanoma is over 100 µM; in the test on NCI-H226 lung, 84.1 µM; with OVCAR-8 ovarian, 86.5 µM; in the test with MALME-3M melanoma it was over 100 µM; in the test on HCT-15 colon it was over 100 µM; in the test with SF-295 CNS it was 60.4 µM. In addition, the TGI in the test on ACHN renal, in the test on HT29 colon, in the test on HCT-116 colon and in the test on SNB-19 CNS was over 100 µM in each case.

Consider `O=C1Nc2cccc3cc(NCC(O)CCl)cc1c23` (centres undefined), for which the TGI in the test on SK-MEL-2 melanoma was 69.9 µM; in the test with NCI-H226 lung, over 100 µM; with OVCAR-8 ovarian, over 100 µM; in the test on MALME-3M melanoma, over 100 µM; in the test on HCT-15 colon, over 100 µM; in the test on SF-295 CNS, over 100 µM. Further, the TGI in the test with ACHN renal, in the test on HT29 colon, in the test on HCT-116 colon and in the test on SNB-19 CNS was over 100 µM throughout.

Consider `COC(=O)c1c(-c2ccccc2)sc(-c2cccc3ccccc23)c1C(=O)OC`, for which the TGI in the test with SK-MEL-2 melanoma, in the test with NCI-H226 lung, with OVCAR-8 ovarian, in the test with MALME-3M melanoma, with HCT-15 colon and with SF-295 CNS was over 100 µM in each case. Further, the TGI with ACHN renal, in the test with HT29 colon, with HCT-116 colon and with SNB-19 CNS was over 100 µM each time.

Regarding `CCOc1ccccc1NC(=O)CCc1nc(=S)[nH][nH]1`, the TGI with SK-MEL-2 melanoma, in the test on NCI-H226 lung, in the test on OVCAR-8 ovarian, in the test on MALME-3M melanoma, with HCT-15 colon and with SF-295 CNS was over 100 µM in each case. In addition, the TGI with ACHN renal, with HT29 colon, in the test with HCT-116 colon and in the test on SNB-19 CNS was over 100 µM each time.

Turning to `O=[N+]([O-])c1ccc2c(c1)[O][Sn][O]2`, the GI50 in the test with SK-MEL-2 melanoma was over 150 µg/mL; in the test with NCI-H226 lung, 29 µg/mL; in the test on OVCAR-8 ovarian, 65.7 µg/mL; in the test on MALME-3M melanoma, 149 µg/mL; with HCT-15 colon it was 16.8 µg/mL; with SF-295 CNS, over 150 µg/mL. The GI50 in the test with ACHN renal was 139 µg/mL; in the test on HT29 colon it was 86 µg/mL; with HCT-116 colon, 45.3 µg/mL; in the test on SNB-19 CNS, 55.2 µg/mL. In addition, the TGI with SK-MEL-2 melanoma, in the test on NCI-H226 lung, with OVCAR-8 ovarian, in the test with MALME-3M melanoma, in the test on HCT-15 colon and in the test with SF-295 CNS was over 150 µg/mL each time. The TGI with ACHN renal, with HT29 colon, in the test on HCT-116 colon and with SNB-19 CNS was over 150 µg/mL throughout.

`COC(=O)C1=C(C(=O)OC)SC(=C(Cl)C(=S)Sc2ccccc2N)S1`: the GI50 in the test on SK-MEL-2 melanoma was 14.2 µM; in the test with NCI-H226 lung it was 30.7 µM; in the test on OVCAR-8 ovarian, 46.6 µM; in the test with MALME-3M melanoma, over 100 µM; in the test with HCT-15 colon, 43.8 µM; in the test on SF-295 CNS, 26.2 µM. Besides, the GI50 in the test on ACHN renal was 22.7 µM; in the test with HT29 colon, 93.9 µM; with HCT-116 colon, 13.2 µM; in the test with SNB-19 CNS, 32 µM. The TGI is 43.6 µM with SK-MEL-2 melanoma; over 100 µM in the test on NCI-H226 lung; over 100 µM with OVCAR-8 ovarian; over 100 µM in the test on MALME-3M melanoma; over 100 µM in the test with HCT-15 colon; 64.5 µM in the test on SF-295 CNS. Also, the TGI in the test on ACHN renal is 49.7 µM; in the test with HT29 colon, over 100 µM; with HCT-116 colon, 27.7 µM; in the test with SNB-19 CNS, over 100 µM.

`C=C1C(=O)OC2/C=C(\C=O)CC/C=C(\C)C(O)C[C@@H]12` (some centres undefined): the TGI with SK-MEL-2 melanoma is 25 µM; with NCI-H226 lung, 43.9 µM; in the test on OVCAR-8 ovarian it was 12 µM; with MALME-3M melanoma, 22.2 µM; with HCT-15 colon, 14.9 µM; in the test on SF-295 CNS, 28.3 µM. In addition, the TGI with ACHN renal stood at 19.9 µM; with HT29 colon, 11.6 µM; with HCT-116 colon it was 3.46 µM; in the test on SNB-19 CNS, 29.1 µM.

As to `C[C-](O)O.O/C(=C\[C-](O)c1ccccc1)c1ccccc1.O/C(=C\[C-](O)c1ccccc1)c1ccccc1.[Nd+3]` (centres undefined), the GI50 with SK-MEL-2 melanoma was 13.1 µM; in the test with NCI-H226 lung, 1.24 µM; with OVCAR-8 ovarian, 4.48 µM; in the test on MALME-3M melanoma, 16.8 µM; in the test on HCT-15 colon it was 4.96 µM; with SF-295 CNS it was 0.372 µM. Also, the GI50 in the test with ACHN renal is 12 µM; with HT29 colon, 10.6 µM; with HCT-116 colon, 4.24 µM; in the test with SNB-19 CNS it was 7.83 µM. For the same compound, the TGI is 34.4 µM with SK-MEL-2 melanoma; 7.93 µM with NCI-H226 lung; 55 µM in the test on OVCAR-8 ovarian; 65.9 µM in the test with MALME-3M melanoma; 20.1 µM in the test on HCT-15 colon; 19.4 µM with SF-295 CNS. Also, the TGI in the test with ACHN renal is over 100 µM; with HT29 colon, 22.5 µM; in the test on HCT-116 colon, 16.5 µM; in the test on SNB-19 CNS, 50 µM.

As to `O=C1CC(=O)OC(c2ccc([N+](=O)[O-])cc2)O1`, the GI50 in the test with SK-MEL-2 melanoma is 2.31 µM; in the test on NCI-H226 lung, 2.07 µM; in the test on OVCAR-8 ovarian, 2.42 µM; in the test on MALME-3M melanoma, 2.28 µM; in the test with HCT-15 colon, 2.25 µM; with SF-295 CNS, 4.85 µM. The GI50 is 1.68 µM in the test on ACHN renal, 1.9 µM with HT29 colon, 1.61 µM in the test on HCT-116 colon and 3.43 µM in the test with SNB-19 CNS. The TGI with SK-MEL-2 melanoma stood at 5.85 µM; in the test on NCI-H226 lung it was 5.5 µM; in the test on OVCAR-8 ovarian, 7.83 µM; with MALME-3M melanoma, 7.02 µM; in the test with HCT-15 colon, 7.15 µM; with SF-295 CNS, 14 µM. Moreover, the TGI in the test with ACHN renal was found to be 3.16 µM; in the test with HT29 colon it was 3.73 µM; with HCT-116 colon, 3.12 µM; in the test with SNB-19 CNS, 12.3 µM.

For the compound `O=C1c2ccccc2-n2c1nc1ccccc1c2=O`, the TGI in the test with SK-MEL-2 melanoma is 22.9 µM; with NCI-H226 lung it was over 80.1 µM; in the test on OVCAR-8 ovarian it was over 82.4 µM; in the test on MALME-3M melanoma, 29 µM; in the test with HCT-15 colon it was over 81.3 µM; in the test on SF-295 CNS it was 18.8 µM. The TGI in the test on ACHN renal was 29.3 µM; in the test with HT29 colon, 51.2 µM; in the test with HCT-116 colon, 79.6 µM; in the test with SNB-19 CNS, over 91.2 µM.

The record behind these values is PubChem BioAssay (NCI).
